Laboratory results reported in paper PMC9775191, “A Subset Screen of the Compounds Australia Scaffold Library Identifies 7-Acylaminodibenzoxazepinones as Potent and Selective Hits for Anti-Giardia Drug Discovery” (Biomedicines, 2022).

These molecules were tested on G. duodenalis BRIS/91/HEPU/1279 (assay: Primary Giardia screen at 10 µM (live-cell imaging, automated counting)). Conditions: 24 h.
Assay type: cell-based, Giardia duodenalis
Summary of the method: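 Singlicate, 10 μM final, 0.2% DMSO; sealed chambers, 3% O2/5% CO2/N2. Counts by live-cell imaging at 24 h and 48 h. % growth vs vehicle, media background subtracted; Z' per plate.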
For O=C(c1cc2occc2c(Nc2ccc(F)cc2)n1)N1CCN(c2ccccn2)CC1 [SN00790827], the “Average % Inhibition 24h” value was 14.2%.

Same assay, conditions: 24 h, first singlicate assay
For O=C(c1cc2occc2c(Nc2ccc(F)cc2)n1)N1CCN(c2ccccn2)CC1 [SN00790827], the “% Inhibition n=1 24h” value was 21.9%.

Same assay, conditions: 24 h, re-assessment
In the case of O=C(c1cc2occc2c(Nc2ccc(F)cc2)n1)N1CCN(c2ccccn2)CC1 [SN00790827], the “% Inhibition n=2 24h” value is reported as 6.5%.

Same assay, conditions: 48 h
With O=C(c1cc2occc2c(Nc2ccc(F)cc2)n1)N1CCN(c2ccccn2)CC1 [SN00790827] the “Average % Inhibition 48h” value was 31.0%.

Same assay, conditions: 48 h, first singlicate assay
For CCOC(=O)c1csc(-n2nc(-c3cccc(OC(C)=O)c3)cc2C(F)(F)F)n1 [SN00789527], the “% Inhibition n=1 48h” value was 21.7%. COc1ccc(NC(=O)C2CCn3c(nc4ccccc43)C2)cc1Cl (stereo not drawn) [SN00789545] was tested, and the “% Inhibition n=1 48h” value was 0.0%. With Cc1ccc(NC(=O)Cn2c(=O)n(Cc3ccc4c(c3)OCO4)c(=O)c3ncccc32)cc1 [SN00789565] the “% Inhibition n=1 48h” value was 0.0%. COc1ccc(CCn2c(=O)c3ncccc3n(Cc3ccc(C)cc3)c2=O)cc1OC [SN00789585] was tested, and the “% Inhibition n=1 48h” value was 1.7%. For CC(C)c1ccc(S(=O)(=O)N2CCN(c3cc(=O)n4nc(-c5ccccc5)sc4n3)CC2)cc1 [SN00789595], the “% Inhibition n=1 48h” value was 0.0%. With COc1ccc(S(=O)(=O)N2CCN(c3cc(=O)n4nc(-c5ccccc5C)sc4n3)CC2)cc1 [SN00789606] the “% Inhibition n=1 48h” value was 10.6%. For CCCNS(=O)(=O)c1cc(C(=O)N2CCCC2)cs1 [SN00789651], the “% Inhibition n=1 48h” value was 0.0%. In the case of Cc1ccc(S(=O)(=O)NC(C)c2nc(-c3cccc(C(=O)N4CCCC4)c3)no2)cc1 (stereo not drawn) [SN00789753], the “% Inhibition n=1 48h” value is reported as 5.7%. For Cc1nc(-c2cccc(N3CC(C(=O)NCc4ccccc4)CC3=O)c2)no1 (stereo not drawn) [SN00789781], the “% Inhibition n=1 48h” value was 0.0%. O=C(C1CC(=O)N(c2cccc(-c3noc(C4CCC4)n3)c2)C1)N1CCN(c2ccccc2F)CC1 (stereo not drawn) [SN00789791] was tested, and the “% Inhibition n=1 48h” value was 5.7%. For COCCNC(=O)C1(C)Cn2c(cc3ccsc32)C(=O)N1c1ccc(OC)c(OC)c1 (stereo not drawn) [SN00789817], the “% Inhibition n=1 48h” value was 0.0%. With Cn1nc(C(=O)NCc2ccc3c(c2)OCO3)c2c1CCN(C(=O)C1CCCC1)C2 [SN00789838] the “% Inhibition n=1 48h” value was 7.0%. For Cc1ccc(NS(=O)(=O)c2ccc(-c3nnc(C)o3)s2)cc1 [SN00789919], the “% Inhibition n=1 48h” value was 5.1%. For COc1ccc(NC(=O)c2cn(-c3ccc(-c4noc(C5CCCC5)n4)cc3)nc2C)cc1OC [SN00789967], the “% Inhibition n=1 48h” value was 25.5%. For Cc1c(N2CCC(C(=O)NC3CCCCCC3)CC2)c(=O)n(CC(C)C)c(=O)n1-c1ccccc1 [SN00790002], the “% Inhibition n=1 48h” value was 9.5%. CCc1ccc(-c2cc(C(=O)N3CCN(c4c(C)n(-c5ccccc5)c(=O)n(C)c4=O)CC3)[nH]n2)cc1 [SN00790031] was tested, and the “% Inhibition n=1 48h” value was 0.0%. For O=C(NCCC1=CCCCC1)C1CCN(c2nc3cccnc3n(Cc3ccccc3)c2=O)CC1 [SN00790039], the “% Inhibition n=1 48h” value was 11.4%. For Cc1noc(C)c1CCNC(=O)C1CCN(c2nc3cccnc3n(C)c2=O)CC1 [SN00790058], the “% Inhibition n=1 48h” value was 15.0%. For CCn1c(=O)c(N2CCCC(C(=O)NCCc3c[nH]c4ccccc34)C2)nc2ccccc21 (stereo not drawn) [SN00790077], the “% Inhibition n=1 48h” value was 9.8%. With COc1cc(NC(=O)C2CCCN(c3nc4ccccc4[nH]c3=O)C2)cc(OC)c1 (stereo not drawn) [SN00790089] the “% Inhibition n=1 48h” value was 0.0%. With O=C(Cc1cccs1)Nc1ccc(N2CCN(c3ccccc3F)CC2)cc1C(=O)O [SN00790111] the “% Inhibition n=1 48h” value was 0.0%. Cc1ccc(-n2nc(N3CCC(C(=O)NCC4CCCO4)CC3)ccc2=O)cc1Cl (stereo not drawn) [SN00790174] was tested, and the “% Inhibition n=1 48h” value was 0.0%. For O=C(Nc1ccc2nc(N3CCCN(c4ncccn4)CC3)cc(C(=O)O)c2c1)c1ccccc1F [SN00790270], the “% Inhibition n=1 48h” value was 0.0%. For COc1ccccc1CN1CCN(c2cc(C(=O)O)c3cc(NC(C)=O)ccc3n2)CC1 [SN00790290], the “% Inhibition n=1 48h” value was 39.8%. With Cc1ccc(CN2CCN(C(=O)C3CCC3)c3cccnc32)cc1 [SN00790417] the “% Inhibition n=1 48h” value was 4.2%. With COc1ccc(OCC(=O)N2CCN(Cc3ccc(C)cc3)c3ncccc32)cc1 [SN00790421] the “% Inhibition n=1 48h” value was 6.7%. For COc1ccc(S(=O)(=O)N2CCN(Cc3ccc(C)cc3)c3ncccc32)cc1 [SN00790428], the “% Inhibition n=1 48h” value was 10.3%. For O=S(=O)(c1ccc(F)cc1)N1CCN=C1N1CCCCC1 [SN00790442], the “% Inhibition n=1 48h” value was 15.7%. With O=C(Nc1cccc(F)c1)c1nnc(C2CCCN2C(=O)Nc2cccc(C(F)(F)F)c2)s1 (stereo not drawn) [SN00790473] the “% Inhibition n=1 48h” value was 8.5%. For Cc1ccc(NC(=O)c2nnc(C3CCCN3C(=O)NC3CCCC3)s2)cc1 (stereo not drawn) [SN00790483], the “% Inhibition n=1 48h” value was 4.4%. In the case of CCOc1ccc(-n2c(=O)c3sc4ncccc4c3n(CC(=O)NC3CCCCC3)c2=O)cc1 [SN00790499], the “% Inhibition n=1 48h” value is reported as 13.5%. CCOc1ccc(-n2c(=O)c3sc4ncccc4c3n(CC(=O)N3CCCCC3)c2=O)cc1 [SN00790501] was tested, and the “% Inhibition n=1 48h” value was 5.1%. CSc1ccc(CNC(=O)C2CCN(S(=O)(=O)c3ccc(-c4ccn[nH]4)o3)CC2)cc1 [SN00790551] was tested, and the “% Inhibition n=1 48h” value was 11.7%. In the case of O=c1c2cc(-c3cccs3)nn2ccn1Cc1nc(-c2cccc(F)c2)no1 [SN00790579], the “% Inhibition n=1 48h” value is reported as 8.1%. With Cc1ccc(Cn2nnc3c(=O)n(Cc4nc(-c5ccccc5)no4)cnc32)cc1 [SN00790594] the “% Inhibition n=1 48h” value was 2.1%. In the case of COc1ccccc1-c1noc(Cn2cnc3c(nnn3Cc3ccccc3)c2=O)n1 [SN00790613], the “% Inhibition n=1 48h” value is reported as 6.5%. With Cc1ccccc1CS(=O)(=O)Cc1ccc(-c2nc(-c3ccc(Br)cc3)no2)o1 [SN00790667] the “% Inhibition n=1 48h” value was 0.0%. In the case of O=C(CC1COc2ccccc2N1Cc1ccccc1)N1CCc2ccccc2C1 (stereo not drawn) [SN00790679], the “% Inhibition n=1 48h” value is reported as 0.0%. With CN1c2ccccc2OCC1CC(=O)Nc1ccc(F)cc1 (stereo not drawn) [SN00790682] the “% Inhibition n=1 48h” value was 7.6%. CCCc1nnc(C(=O)Nc2cccc(C(=O)NCc3c[nH]nc3C)c2)s1 [SN00790723] was tested, and the “% Inhibition n=1 48h” value was 0.0%. With CCOc1ccc(CNC(=O)c2cccc(NC(=O)c3nnc(C4CC4)s3)c2)cc1 [SN00790732] the “% Inhibition n=1 48h” value was 0.0%. In the case of Cc1nn(C(C)C)c(C)c1S(=O)(=O)N1CCN(C(=O)c2cccs2)CC1 [SN00790783], the “% Inhibition n=1 48h” value is reported as 3.8%. For Cc1cccc(N(C)S(=O)(=O)c2cc(-c3ccno3)sc2C)c1 [SN00790813], the “% Inhibition n=1 48h” value was 6.1%. For CCN1CCN(CCCNC(=O)c2cc3occc3c(Nc3ccc(OC)cc3)n2)CC1 [SN00790822], the “% Inhibition n=1 48h” value was 14.5%. O=C(c1cc2occc2c(Nc2ccc(F)cc2)n1)N1CCN(c2ccccn2)CC1 [SN00790827] was tested, and the “% Inhibition n=1 48h” value was 53.8%. Cc1ccc(CNC(=O)C2CCN(c3ncccc3-n3cccc3)CC2)cc1 [SN00790865] was tested, and the “% Inhibition n=1 48h” value was 0.0%. In the case of CCC(C)NC(=O)N1CCc2c(sc3nc(-c4ccc(C)cc4)nn23)C1 (stereo not drawn) [SN00790900], the “% Inhibition n=1 48h” value is reported as 10.9%. CCNC(=O)N1CCCC(c2cccc(C(=O)NCCC3=CCCCC3)c2)C1 (stereo not drawn) [SN00790923] was tested, and the “% Inhibition n=1 48h” value was 6.9%. In the case of CCOC(=O)c1cccc(NC(=O)c2cnc(C)nc2C)c1 [SN00790942], the “% Inhibition n=1 48h” value is reported as 0.0%. For Cc1ccc(-c2ncc(C(=O)NC3CCCCCC3)c(C)n2)cc1 [SN00790958], the “% Inhibition n=1 48h” value was 0.0%. For CCc1nc(-c2ccc3c(c2)CCN3C(=O)CCc2ccc(OC)cc2)no1 [SN00790989], the “% Inhibition n=1 48h” value was 14.1%. In the case of COc1ccccc1-c1cc(C(=O)N2CCCN(c3ccc(=O)n(-c4ccc(C)c(C)c4)n3)CC2)[nH]n1 [SN00791007], the “% Inhibition n=1 48h” value is reported as 8.7%. Cc1c(-c2nc(-c3cccnc3)no2)oc2ccc(S(=O)(=O)N3CCOCC3)cc12 [SN00791042] was tested, and the “% Inhibition n=1 48h” value was 1.1%. For CC(C)n1c(=O)c2cn(S(=O)(=O)c3ccccc3)nc2n(C(C)C)c1=O [SN00791107], the “% Inhibition n=1 48h” value was 5.9%. With CCS(=O)(=O)N1CCC2(CC1)OC(=O)C(C)=C2C(=O)Nc1ccc(C)cc1C [SN00791146] the “% Inhibition n=1 48h” value was 0.0%.

Same assay, conditions: 48 h, re-assessment
For O=C(c1cc2occc2c(Nc2ccc(F)cc2)n1)N1CCN(c2ccccn2)CC1 [SN00790827], the “% Inhibition n=2 48h” value was 8.1%.
